Here are results for 90 molecules from ChEMBL document CHEMBL3507680, “University of Dundee, Gates Library screen for HepG2 cell viability”.

A short description of this series: Human HepG2 cell viability assay in 384 well format. In kind it is toxicity, cell-based. Further details: dose 125 nL, time 70.5 hour; cytotoxicity at 70.5 h: concentration not given beside the values. Particulars: HepG2 cells, read-out: Inhibition.

As to `CN(C)c1ccc2c(c1)CN(C(=O)c1ccco1)C2c1cnco1` (stereo not given), the cytotoxicity at 70.5 h came to 32.5%.

For the molecule `CC1N(CC2CC2)C(=O)COC12CCN(C(=O)c1cnccn1)CC2` (stereo not given), the cytotoxicity at 70.5 h was -5.19%.

On to `O=C1COC2(CCN(C(=O)c3cnccn3)CC2)CN1CC1CC1`, for which the cytotoxicity at 70.5 h came out at 18.8%.

In the case of `Cc1nc(CN2CCC23CCN(C(=O)c2ccncc2)CC3)cs1`, the cytotoxicity at 70.5 h was -9.81%.

Regarding `CN1Cc2ccccc2CC2(CCN(c3ncccn3)CC2)C1=O`, the cytotoxicity at 70.5 h was -14.8%.

As to `C[C@@H]1C[C@@H]2CCN(Cc3nccs3)C[C@H]2O1`, the cytotoxicity at 70.5 h is -9.1%.

Consider `O=C(NC[C@H]1C[C@@H]2CN(C(=O)c3ccno3)C[C@@H]2O1)C1CCC1`, for which the cytotoxicity at 70.5 h is -11.5%.

As for `Cc1noc(C[C@@H]2COC[C@H]3CN(C(=O)C4=CCCC4)C[C@@H]23)n1`, the cytotoxicity at 70.5 h is -13.5%.

For `CN1Cc2ccccc2CC2(CCN(c3ncc(F)cn3)CC2)C1=O`, the cytotoxicity at 70.5 h is -12.1%.

As to `CCNC(=O)N1CCC2(CC1)CCn1c(C3CC3)cnc12`, the cytotoxicity at 70.5 h was determined as 30.6%.

Regarding `CCN(C)C(=O)c1cnc(-c2noc3cc(N4CCCCC4)ccc23)s1`, the cytotoxicity at 70.5 h was found to be 30.7%.

Regarding `COc1cccc(-c2cnc3n2CCC32CCN(S(C)(=O)=O)CC2)c1`, the cytotoxicity at 70.5 h is -2.2%.

Regarding `O=C(NC1CC1)c1cnc(-c2noc3cc(N4CCCCC4)ccc23)s1`, the cytotoxicity at 70.5 h was -0.737%.

Consider `Cc1nnc([C@H]2C[C@H]3OCC[C@H]3N(S(=O)(=O)C3CC3)C2)o1`, for which the cytotoxicity at 70.5 h stood at 5.23%.

On to `Cc1nnc([C@H]2C[C@H]3OCC[C@H]3N(S(=O)(=O)CC(C)C)C2)o1`, for which the cytotoxicity at 70.5 h was -1.29%.

As to `O=C(C1CC(F)(F)C1)N1CC[C@H]2OCC[C@@]2(COCC2CC2)C1`, the cytotoxicity at 70.5 h is -1.76%.

Turning to `Cc1ccccc1C(=O)N1C[C@@H]2C[C@@H](C)O[C@@H]2C1`, the cytotoxicity at 70.5 h is -8.1%.

Take `O=C(c1cnc(-c2noc3cc(N4CCCC4)ccc23)s1)N1CCCC1`: the cytotoxicity at 70.5 h was -4.44%.

Take `CCNC(=O)N1CCC2(CC1)CCn1c(-c3cccc(OC)c3)cnc12`: the cytotoxicity at 70.5 h was -6.74%.

As for `Cn1cnc2c1C(C(=O)N1CCCO1)N(C(=O)c1ccccc1)CC2` (stereo not given), the cytotoxicity at 70.5 h is -9.14%.

`O=C(NC1CC1)[C@H]1COC[C@H]2CN(c3ncc(F)cn3)C[C@H]21`: the cytotoxicity at 70.5 h is -8.95%.

In the case of `CNC(=O)C1CCC2(CCN(c3ncc(C)cn3)CC2)CO1` (stereo not given), the cytotoxicity at 70.5 h stood at 4.35%.

In the case of `CC(C)CN1C[C@H]2C[C@H](C(=O)NCc3cccnc3)[C@@H](C1)O2`, the cytotoxicity at 70.5 h was determined as 2.54%.

In the case of `CC(C)OC[C@H]1CCC[C@]12CN(S(=O)(=O)c1cccs1)CCO2`, the cytotoxicity at 70.5 h was -8.77%.

On to `COC[C@@H]1CCC[C@]12CN(S(=O)(=O)c1cccs1)CCO2`, for which the cytotoxicity at 70.5 h is -4.17%.

Turning to `COCCN1C[C@@H]2OCCN(c3ccnc(N(C)C)n3)[C@@H]2C1`, the cytotoxicity at 70.5 h was 0.722%.

On to `COCC(=O)N1CCCn2c(CN3CCCC3=O)nnc2C1`, for which the cytotoxicity at 70.5 h was -8.38%.

As for `Cc1cnc(N2CCC3(CCCN(c4ncc(F)cn4)C3)C2)nc1` (stereo not given), the cytotoxicity at 70.5 h was -5.99%.

Take `Cc1nc(CN2C(=O)COC3(CCN(C(N)=O)CC3)C2C)cs1` (stereo not given): the cytotoxicity at 70.5 h is 3.95%.

Turning to `COCC1CN(Cc2cccc(C#N)c2)Cc2nccn2C1` (stereo not given), the cytotoxicity at 70.5 h was found to be 1.24%.

`COc1cccc(CC(=O)N2Cc3nccn3CC(CN(C)C)C2)c1` (stereo not given): the cytotoxicity at 70.5 h was -0.154%.

As to `CCOCC(=O)N1CCCn2c(CN3CCOCC3)nnc2C1`, the cytotoxicity at 70.5 h was determined as 2.86%.

On to `COCCN1C2(CCN(C(=O)c3cccs3)C2)c2ccccc2S1(=O)=O` (stereo not given), for which the cytotoxicity at 70.5 h amounted to 2.42%.

With `CCOCC(=O)N1CCCn2c(CN3CCCCC3)nnc2C1`, the cytotoxicity at 70.5 h is -1.12%.

Take `c1ccc(N2CCOCC3(CCCN(c4nccs4)C3)C2)nc1` (stereo not given): the cytotoxicity at 70.5 h came out at 4.3%.

In the case of `NC(=O)N1CC[C@@H]2O[C@@H](COCC(=O)N3CCCC3)CC[C@@H]21`, the cytotoxicity at 70.5 h is 24%.

For the molecule `Cc1ccc(CS(=O)(=O)N2CC[C@H]3[C@H]2CC(=O)N3C)cc1`, the cytotoxicity at 70.5 h is -10.2%.

On to `Cc1nnc([C@H]2C[C@@H]3CCN(Cc4cc(C)on4)C[C@H]3O2)[nH]1`, for which the cytotoxicity at 70.5 h is -4.17%.

For `CS(=O)(=O)N1CC[C@@H]2OC(COCC(=O)N3CCCC3)CC[C@@H]21` (stereo not given in full), the cytotoxicity at 70.5 h is -6.9%.

Turning to `O=C1CC[C@H]2[C@H](CCN2C(=O)c2ccc[nH]2)N1CCN1CCOCC1`, the cytotoxicity at 70.5 h was 19.1%.

For the molecule `Cc1csc(CN2CC[C@H]3C[C@H](C)O[C@@H]3C2)n1`, the cytotoxicity at 70.5 h is -10.4%.

`Cc1csc(CN2CC[C@H]3C[C@H](c4noc(C)n4)O[C@@H]3C2)n1`: the cytotoxicity at 70.5 h is -9.71%.

With `Cc1ncsc1CN1C[C@H]2OCC[C@H]2[C@H](C(=O)NCC2CC2)C1`, the cytotoxicity at 70.5 h worked out at 2.15%.

For `Cc1csc(CN2CC[C@H]3C[C@@H](c4noc(C)n4)O[C@@H]3C2)n1`, the cytotoxicity at 70.5 h was -0.439%.

Consider `COC[C@@]12CCO[C@@H]1CCN(C(=O)Cc1ccc(C)cc1)C2`, for which the cytotoxicity at 70.5 h was 31.2%.

As to `CNC(=O)N1CCC2(CC1)CN(C(C)C)Cc1cc(F)ccc12`, the cytotoxicity at 70.5 h is -2.71%.

Regarding `CN(C)C[C@H]1C[C@@H]2CN(C(=O)c3ccno3)C[C@@H]2O1`, the cytotoxicity at 70.5 h is -16.7%.

As for `Cn1nc(Cn2cccc2)c2c1CN(Cc1ccoc1)C2`, the cytotoxicity at 70.5 h was 21.4%.

On to `O=C(c1ccccc1)N1CCO[C@@H]2CN(c3cnccn3)C[C@@H]2C1`, for which the cytotoxicity at 70.5 h was -12.3%.

On to `CC(C)N1CCC2(CCCN(C(=O)c3cncn3C)C2)CC1`, for which the cytotoxicity at 70.5 h was -12%.

Turning to `Cc1nc(CN2C(=O)CC3(CCN(C(N)=O)CC3)c3ccccc32)cs1`, the cytotoxicity at 70.5 h is -2.82%.

Turning to `c1cncc(C2CC3(CCN(c4cnccn4)CC3)c3ccccc32)c1` (stereo not given), the cytotoxicity at 70.5 h is -1.15%.

Take `c1cnc(N2CC3(CCN(CC4CCOC4)CC3)c3ccccc32)nc1` (stereo not given): the cytotoxicity at 70.5 h stood at 0.807%.

As for `c1cnc(N2CC3(CCN(C4CCOCC4)CC3)c3ccccc32)nc1`, the cytotoxicity at 70.5 h is -0.647%.

In the case of `O=C([C@H]1COC[C@H]2CN(c3ncc(F)cn3)C[C@H]21)N1CCOCC1`, the cytotoxicity at 70.5 h is -7.81%.

On to `CCC(=O)N1CCC2(CCC(N3CCCC3)c3ccccc32)CC1` (stereo not given), for which the cytotoxicity at 70.5 h is -6.38%.

As for `Cc1cnc(N2C[C@@H]3[C@@H](C2)OCC(=O)N3CCN(C)C)nc1`, the cytotoxicity at 70.5 h was -3.72%.

On to `Cc1nnc([C@]23COC[C@H]2CN(Cc2cccs2)C3)o1`, for which the cytotoxicity at 70.5 h was determined as 27.6%.

For `O=C(c1ccnnc1)N1C[C@@H]2C[C@@H](c3nc(C4CC4)cs3)O[C@@H]2C1`, the cytotoxicity at 70.5 h was -3.56%.

As to `CN(C)Cc1cn2c(n1)CN(C(=O)Cc1ccsc1)CC2`, the cytotoxicity at 70.5 h was -0.503%.

Consider `CN(C)CC1CN(C(=O)CCc2ccccc2)Cc2nccn2C1` (stereo not given), for which the cytotoxicity at 70.5 h amounted to 1.84%.

For `O=C(c1ccc2ccccc2n1)N1CCC2(CCN2c2ncccn2)C1` (stereo not given), the cytotoxicity at 70.5 h is 2.64%.

As for `Cc1noc([C@@H]2C[C@H]3OCC[C@H]3N(C(C)C)C2)n1`, the cytotoxicity at 70.5 h was 6.58%.

Turning to `O=C1NC2(CCN(C(=O)N3CCOCC3)CC2)CC1c1cccnc1` (stereo not given), the cytotoxicity at 70.5 h turned out to be 3.42%.

Consider `Cc1ccc(CN2Cc3c(C(=O)N4CCCC4)nn(C)c3C2)s1`, for which the cytotoxicity at 70.5 h came to 22.4%.

As for `COCCN1CC[C@@H]2OC(COCC(=O)N3CCCC3)CC[C@@H]21` (stereo not given in full), the cytotoxicity at 70.5 h was -3.03%.

With `CS(=O)(=O)NCc1cnc2n1CCN(Cc1ccco1)CC2`, the cytotoxicity at 70.5 h was -6.2%.

Take `Cc1nc(CO[C@@H]2CN(Cc3cccs3)[C@@H]3COC[C@@H]32)cs1`: the cytotoxicity at 70.5 h is -9.88%.

`Cc1ccc(CN2C[C@@H](OCc3csc(C)n3)[C@H]3COC[C@H]32)s1`: the cytotoxicity at 70.5 h is -10.6%.

For the molecule `Cc1ncsc1CN1C[C@H](C(=O)NCC2CC2)[C@@H]2CCO[C@@H]2C1`, the cytotoxicity at 70.5 h was -7.28%.

Take `CS(=O)(=O)N1CCOCC2(CCN(C(=O)c3ccncc3)CC2)C1`: the cytotoxicity at 70.5 h was -6.51%.

In the case of `COc1cc(N2C[C@H](C(=O)NCC3CC3)[C@@H]3CCO[C@@H]3C2)ncn1`, the cytotoxicity at 70.5 h is -11.6%.

`Cc1nc(CO[C@@H]2CN(Cc3ccsc3)[C@@H]3COC[C@@H]32)cs1`: the cytotoxicity at 70.5 h was -6.52%.

With `CS(=O)(=O)NCc1cnc2n1CCN(Cc1cccs1)CC2`, the cytotoxicity at 70.5 h is -4.2%.

Consider `Cc1ccc(CN2CC3(CCN(C(=O)c4cscn4)C3)C2)o1`, for which the cytotoxicity at 70.5 h was -7.14%.

In the case of `O=C(c1cscn1)N1CCC2(CN(Cc3ccoc3)C2)C1`, the cytotoxicity at 70.5 h was -9.97%.

Consider `CS(=O)(=O)NCc1cnc2n1CCN(Cc1ccccn1)CC2`, for which the cytotoxicity at 70.5 h was -1.27%.

As for `Cn1nc(Cn2ccnc2)c2c1CN(Cc1ccoc1)C2`, the cytotoxicity at 70.5 h worked out at 24.7%.

With `Cn1nc(CN2CCCCC2)c2c1CN(Cc1ccoc1)C2`, the cytotoxicity at 70.5 h was -7.22%.

`Cc1cc(C(=O)N2CCCC3(COCCN(c4ncccn4)C3)C2)[nH]n1` (stereo not given): the cytotoxicity at 70.5 h was -6.04%.

`O[C@@H]1CCN(CC2CCOC2)[C@H]1Cc1cccnc1` (stereo not given in full): the cytotoxicity at 70.5 h is -12.1%.

Regarding `CS(=O)(=O)N[C@@H]1CCN(Cc2nccs2)[C@H]1Cc1ccncc1`, the cytotoxicity at 70.5 h is -13.1%.

As for `CC(C)CNC(=O)[C@H]1C[C@@H]2CN(Cc3cccnc3)C[C@H]1O2`, the cytotoxicity at 70.5 h was -2.17%.

As for `c1cnc(N2CCCC3(CCN(c4ncccn4)C3)C2)nc1` (stereo not given), the cytotoxicity at 70.5 h was 26.5%.

Regarding `CN(C)CC1CN(Cc2cccc(C#N)c2)Cc2nccn2C1` (stereo not given), the cytotoxicity at 70.5 h is -6.48%.

Consider `CN(C)CCOCC1CN(Cc2cccc(F)c2)Cc2nccn2C1` (stereo not given), for which the cytotoxicity at 70.5 h is -4.81%.

With `CCN(CC)CC1CN(Cc2cccc(C#N)c2)Cc2nccn2C1` (stereo not given), the cytotoxicity at 70.5 h was determined as 5.06%.

Regarding `CN(C)CCN1CC[C@@H]2O[C@@H](COCC(=O)N3CCCC3)CC[C@@H]21`, the cytotoxicity at 70.5 h is -0.268%.

On to `CS(=O)(=O)NCc1cnc2n1CCN(Cc1cccnc1)CC2`, for which the cytotoxicity at 70.5 h was -9.03%.

On to `Cc1nc(CO[C@@H]2CN(Cc3cccnc3)[C@@H]3COC[C@@H]32)cs1`, for which the cytotoxicity at 70.5 h is -10.3%.
